Source: PubChem BioAssay AID1963437 (Molecular Pharmacology Branch, DTP, NCI, 2024)

System: OVCAR-8 complex spheroid, growth inhibition
Experiment: Anticancer human tumor OVCAR-8 cell line growth inhibition [Asc];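 also: spheroids exposed to agents for 7 days before readout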;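 as to viability, T/C: percent viability relative to DMSO vehicle wells taken as 100%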
Conditions: for IC50: curve of first compound; for viability, T/C: stronger effect = lower value
Outline: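 Tumor cells were grown as multicellular spheroids with stromal HUVEC and mesenchymal stem cells and treated singly or in combination. Concentrations fell in half-log steps from the clinical Cmax, or from 10 microM where none was known.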

[1] = second compound 0.0316 µM, first compound 0.00949 µM
[2] = second compound 0.0316 µM, first compound 0.03 µM
[3] = second compound 0.0316 µM, first compound 0.0949 µM
[4] = second compound 0.0316 µM, first compound 0.3 µM
[5] = second compound 0.0316 µM, first compound 0.949 µM
[6] = second compound 0.0316 µM, first compound 3 µM
[7] = second compound 0.1 µM, first compound 0.00949 µM
[8] = second compound 0.1 µM, first compound 0.03 µM
[9] = second compound 0.1 µM, first compound 0.0949 µM
[10] = second compound 0.1 µM, first compound 0.3 µM
[11] = second compound 0.1 µM, first compound 0.949 µM
[12] = second compound 0.1 µM, first compound 3 µM
[13] = second compound 0.316 µM, first compound 0.00949 µM
[14] = second compound 0.316 µM, first compound 0.03 µM
[15] = second compound 0.316 µM, first compound 0.0949 µM
[16] = second compound 0.316 µM, first compound 0.3 µM
[17] = second compound 0.316 µM, first compound 0.949 µM
[18] = second compound 0.316 µM, first compound 3 µM
[19] = second compound 1 µM, first compound 0.00949 µM
[20] = second compound 1 µM, first compound 0.03 µM
[21] = second compound 1 µM, first compound 0.0949 µM
[22] = second compound 1 µM, first compound 0.3 µM
[23] = second compound 1 µM, first compound 0.949 µM
[24] = second compound 1 µM, first compound 3 µM
[25] = second compound 3.16 µM, first compound 0.00949 µM
[26] = second compound 3.16 µM, first compound 0.03 µM
[27] = second compound 3.16 µM, first compound 0.0949 µM
[28] = second compound 3.16 µM, first compound 0.3 µM
[29] = second compound 3.16 µM, first compound 0.949 µM
[30] = second compound 3.16 µM, first compound 3 µM
[31] = second compound 10 µM, first compound 0.00949 µM
[32] = second compound 10 µM, first compound 0.03 µM
[33] = second compound 10 µM, first compound 0.0949 µM
[34] = second compound 10 µM, first compound 0.3 µM
[35] = second compound 10 µM, first compound 0.949 µM
[36] = second compound 10 µM, first compound 3 µM

## NC1CCC(NC2CC2c2ccccc2)CC1 (stereo unspecified) + CNC(C)C(=O)NC1CN(S(=O)(=O)c2cccc(S(=O)(=O)N3CCC4CCC(C(=O)NC(c5ccccc5)c5ccccc5)N4C(=O)C(NC(=O)C(C)NC)C3)c2)CCC2CCC(C(=O)NC(c3ccccc3)c3ccccc3)N2C1=O
Second compound 0.00316 µM
  IC50: > 0.1 µM
Second compound 0.01 µM
  IC50: > 0.1 µM
Second compound 0.0316 µM
  IC50: > 0.1 µM
Second compound 0.1 µM
  IC50: > 0.1 µM
Second compound 0.316 µM
  IC50: > 0.1 µM
Second compound 1 µM
  IC50: > 0.1 µM
Second compound 0.00316 µM, first compound 0.000316 µM
  viability, T/C: 117%
Second compound 0.00316 µM, first compound 0.001 µM
  viability, T/C: 106%
Second compound 0.00316 µM, first compound 0.00316 µM
  viability, T/C: 102%
Second compound 0.00316 µM, first compound 0.01 µM
  viability, T/C: 90.9%
Second compound 0.00316 µM, first compound 0.0316 µM
  viability, T/C: 99.4%
Second compound 0.00316 µM, first compound 0.1 µM
  viability, T/C: 87.1%
Second compound 0.01 µM, first compound 0.000316 µM
  viability, T/C: 118%
Second compound 0.01 µM, first compound 0.001 µM
  viability, T/C: 87.7%
Second compound 0.01 µM, first compound 0.00316 µM
  viability, T/C: 119%
Second compound 0.01 µM, first compound 0.01 µM
  viability, T/C: 91.5%
Second compound 0.01 µM, first compound 0.0316 µM
  viability, T/C: 86.7%
Second compound 0.01 µM, first compound 0.1 µM
  viability, T/C: 91.7%
Second compound 0.0316 µM, first compound 0.000316 µM
  viability, T/C: 93.9%
Second compound 0.0316 µM, first compound 0.001 µM
  viability, T/C: 112%
Second compound 0.0316 µM, first compound 0.00316 µM
  viability, T/C: 96.3%
Second compound 0.0316 µM, first compound 0.01 µM
  viability, T/C: 98.5%
Second compound 0.0316 µM, first compound 0.0316 µM
  viability, T/C: 101%
Second compound 0.0316 µM, first compound 0.1 µM
  viability, T/C: 107%
Second compound 0.1 µM, first compound 0.000316 µM
  viability, T/C: 79.2%
Second compound 0.1 µM, first compound 0.001 µM
  viability, T/C: 79.2%
Second compound 0.1 µM, first compound 0.00316 µM
  viability, T/C: 93.3%
Second compound 0.1 µM, first compound 0.01 µM
  viability, T/C: 93%
Second compound 0.1 µM, first compound 0.0316 µM
  viability, T/C: 88.4%
Second compound 0.1 µM, first compound 0.1 µM
  viability, T/C: 104%
Second compound 0.316 µM, first compound 0.000316 µM
  viability, T/C: 78.8%
Second compound 0.316 µM, first compound 0.001 µM
  viability, T/C: 86.6%
Second compound 0.316 µM, first compound 0.00316 µM
  viability, T/C: 88.2%
Second compound 0.316 µM, first compound 0.01 µM
  viability, T/C: 80%
Second compound 0.316 µM, first compound 0.0316 µM
  viability, T/C: 82.8%
Second compound 0.316 µM, first compound 0.1 µM
  viability, T/C: 87.2%
Second compound 1 µM, first compound 0.000316 µM
  viability, T/C: 77.9%
Second compound 1 µM, first compound 0.001 µM
  viability, T/C: 79.3%
Second compound 1 µM, first compound 0.00316 µM
  viability, T/C: 94%
Second compound 1 µM, first compound 0.01 µM
  viability, T/C: 74.7%
Second compound 1 µM, first compound 0.0316 µM
  viability, T/C: 85.3%
Second compound 1 µM, first compound 0.1 µM
  viability, T/C: 85.7%

## CCN1C(C(=O)NC23CCC(C(=O)O)(CC2)CC3)C(c2cccc(Cl)c2F)C2(C(=O)Nc3cc(Cl)ccc32)C12CCCCC2 (stereo unspecified) + Cc1c(S(C)(=O)=O)c(-c2cc(F)cc(N3CCN(c4ccc(NS(=O)(=O)c5ccc(NC(CCN6CCC(C(=O)OCCCP(=O)(O)O)CC6)CSc6ccccc6)c(S(=O)(=O)C(F)(F)F)c5)cc4)CC3)c2)c(-c2ccc(Cl)cc2)n1C(C)C
Second compound 0.0316 µM
  IC50: > 3 µM
Second compound 0.1 µM
  IC50: > 3 µM
Second compound 0.316 µM
  IC50: > 3 µM
Second compound 1 µM
  IC50: > 3 µM
Second compound 3.16 µM
  IC50: > 3 µM
Second compound 10 µM
  IC50: > 3 µM
[1]
  viability, T/C: 92.4%
[2]
  viability, T/C: 99.1%
[3]
  viability, T/C: 99.5%
[4]
  viability, T/C: 90%
[5]
  viability, T/C: 107%
[6]
  viability, T/C: 109%
[7]
  viability, T/C: 90.1%
[8]
  viability, T/C: 95.8%
[9]
  viability, T/C: 94.8%
[10]
  viability, T/C: 89.8%
[11]
  viability, T/C: 101%
[12]
  viability, T/C: 105%
[13]
  viability, T/C: 108%
[14]
  viability, T/C: 99.9%
[15]
  viability, T/C: 94.8%
[16]
  viability, T/C: 105%
[17]
  viability, T/C: 102%
[18]
  viability, T/C: 125%
[19]
  viability, T/C: 109%
[20]
  viability, T/C: 93.1%
[21]
  viability, T/C: 93.5%
[22]
  viability, T/C: 106%
[23]
  viability, T/C: 112%
[24]
  viability, T/C: 144%
[25]
  viability, T/C: 118%
[26]
  viability, T/C: 95.2%
[27]
  viability, T/C: 88.3%
[28]
  viability, T/C: 101%
[29]
  viability, T/C: 98.8%
[30]
  viability, T/C: 144%
[31]
  viability, T/C: 113%
[32]
  viability, T/C: 104%
[33]
  viability, T/C: 106%
[34]
  viability, T/C: 86.7%
[35]
  viability, T/C: 132%
[36]
  viability, T/C: 146%

## Cc1nc(N2CCC3(CC2)COC(C)C3N)c(CO)nc1Sc1ccnc(N)c1Cl (stereo unspecified) + Cc1c(S(C)(=O)=O)c(-c2cc(F)cc(N3CCN(c4ccc(NS(=O)(=O)c5ccc(NC(CCN6CCC(C(=O)OCCCP(=O)(O)O)CC6)CSc6ccccc6)c(S(=O)(=O)C(F)(F)F)c5)cc4)CC3)c2)c(-c2ccc(Cl)cc2)n1C(C)C
Second compound 0.0316 µM
  IC50: > 3 µM
Second compound 0.1 µM
  IC50: > 3 µM
Second compound 0.316 µM
  IC50: > 3 µM
Second compound 1 µM
  IC50: > 3 µM
Second compound 3.16 µM
  IC50: > 3 µM
Second compound 10 µM
  IC50: > 3 µM
[1]
  viability, T/C: 97%
[2]
  viability, T/C: 96.6%
[3]
  viability, T/C: 159%
[4]
  viability, T/C: 188%
[5]
  viability, T/C: 226%
[6]
  viability, T/C: 206%
[7]
  viability, T/C: 91.3%
[8]
  viability, T/C: 148%
[9]
  viability, T/C: 152%
[10]
  viability, T/C: 190%
[11]
  viability, T/C: 212%
[12]
  viability, T/C: 202%
[13]
  viability, T/C: 97.4%
[14]
  viability, T/C: 132%
[15]
  viability, T/C: 176%
[16]
  viability, T/C: 200%
[17]
  viability, T/C: 231%
[18]
  viability, T/C: 175%
[19]
  viability, T/C: 92.6%
[20]
  viability, T/C: 139%
[21]
  viability, T/C: 176%
[22]
  viability, T/C: 210%
[23]
  viability, T/C: 205%
[24]
  viability, T/C: 169%
[25]
  viability, T/C: 102%
[26]
  viability, T/C: 139%
[27]
  viability, T/C: 182%
[28]
  viability, T/C: 221%
[29]
  viability, T/C: 167%
[30]
  viability, T/C: 144%
[31]
  viability, T/C: 110%
[32]
  viability, T/C: 152%
[33]
  viability, T/C: 177%
[34]
  viability, T/C: 206%
[35]
  viability, T/C: 174%
[36]
  viability, T/C: 121%
